Legend:
[1] = test system: CD43; assay: Cell surface expression of CD43 in human neutrophils (immunofluorescence flow cytometry); type: cell-based; conditions: Medium = 100
Source text: (§1) Isolation and treatment of neutrophils.
(§2) Monoclonal antibodies. […] The antibodies are commercially available.
(§3) Immunofluorescence flow cytometry. […] Results were expressed as relative MFI (rMFI), such that
(§4) rMFI=(MFIagent×100)/MFImedium
(§5) Background fluorescence was substracted from all values.

[2] = test system: CD11a; assay: Cell surface expression of CD11a in human neutrophils (immunofluorescence flow cytometry); type: cell-based; conditions: Medium = 100
Source text: as §1, §2, §3, §4, §5

[3] = test system: cytosolic PLA2; assay: Semiquantitative RT-PCR of cytosolic PLA2 expression in HL-60 cells; type: cell-based, human; conditions: HL-60 cells (FIG. 9)
Method: Cell culture. Human promyelocytic HL-60 cells and promonocytic U937 cells were grown in RPMI-1640 culture medium supplemented with 10% (v/v) heat-inactivated fetal calf serum, 2 mM L-glutamine, 100 units/ml penicillin and 24 μg/ml gentamicin. Mouse 3T3 fibroblasts were grown in Dulbecco's modified Eagle's medium (DMEM) supplemented with 10% (v/v) heat-inactivated fetal calf serum, 2 mM L-glutamine, 100 units/ml penicillin and 24 μg/ml gentamicin. Cells were incubated at 37° C. in a humidified atmosphere at 5% CO2 and 95% air.
Reverse transcriptase polymerase chain reaction (RT-PCR). Total RNA was extracted from human neutrophils and cell lines using TRIZOL reagent (GIBCO-BRL) following the manufacturer's instructions. RNA preparations were carefully checked by gel electrophoresis and found to be free of DNA contamination. For the RT reaction, total RNA (10 μg) was primed with oligo-dt and reverse-transcribed into cDNA with 30 units of M-MLV reverse transcriptase from Promega according to manufacturer's instructions in a final volume of 20 μL. The mixture was incubated at 37° C. for 90 min. The generated cDNA was used for the semi-quantitative RT-PCR and the β-actin gene was used as an internal control. […]

[4] = test system: experimental colitis induced by TNB (2,4,6-trinitrobenzenesulphonic acid); assay: Rat model of experimental colitis induced by TNB, macroscopic evaluation; type: in vivo; set-up: Wet Weight (colon): unit not given beside the values; conditions: Wistar rat; for Wet Weight (colon) / Sample 2 × 6 mm / Score (0-10) / Weight/mm: Mean ± SEM
Method: The therapeutic potential for the treatment of ulcerative colitis of IEC01 at 2.5 and 5 mg/kg and IES01 at 2.5 mg/kg, was evaluated after their administration by oral route during 14 days (7 days of preventive treatment and 7 days of therapeutic treatment) using the rat model of experimental colitis induced by TNB (2,4,6-trinitrobenzenesulphonic acid). As reference parameters, the body weight, wet colon weight and score macroscopic evaluation were evaluated after 24 hours and after 7 days of the intraluminal administration of TNB in the colon. […] The inflammatory response is recognised by the presence of ulcerative fissures, faecal shatters and inflammation of bowel wall. A chronic inflammatory response was observed 7 days after the administration. An erratic response with lineal or punctual ulcers, necrosis, faecal shatters, reduction of colonic lumen, granulomas and peritoneal adherence was observed.

[5] = 2.5 mg/Kg p.o., after 24 hours of intraluminal administration
[6] = 2.5 mg/Kg p.o., after 7 days of intraluminal administration
[7] = 5.0 mg/Kg p.o., after 24 hours of intraluminal administration
[8] = 5.0 mg/Kg p.o., after 7 days of intraluminal administration

CCCCCCCCCCCCCCCCCCOCC(COP(=O)([O-])OCC[N+](C)(C)C)OC (stereo not shown) [IEC01, Edelfosine]
CD43 cell surface expression (rMFI) ([1]; 10 ng/ml): 87.5 ± 2.5
CD43 cell surface expression (rMFI) ([1]; 100 ng/ml): 63 ± 8
CD43 cell surface expression (rMFI) ([1]; 500 ng/ml): 53 ± 5
CD43 cell surface expression (rMFI) ([1]; 1 μg/ml): 33 ± 8
CD43 cell surface expression (rMFI) ([1]; 5 μg/ml): 28 ± 7
CD11a cell surface expression (rMFI) ([2]; 10 ng/ml): 99 ± 3
CD11a cell surface expression (rMFI) ([2]; 100 ng/ml): 102 ± 5
CD11a cell surface expression (rMFI) ([2]; 500 ng/ml): 97 ± 8
CD11a cell surface expression (rMFI) ([2]; 1 μg/ml): 101 ± 6
CD11a cell surface expression (rMFI) ([2]; 5 μg/ml): 96 ± 5
mRNA expression of cytosolic PLA2 [3]: did not affect
% (inhibition, Sample 2 × 6 mm) [4, 5]: 14.7%
% (inhibition, Score) [4, 5]: 8.6%
% (inhibition, Weight/mm) [4, 5]: 35.2%
% (inhibition, Wet Weight) [4, 5]: 35.1%
Wet Weight (colon) ([4]; 2.5 mg/Kg p.o., after 24 hours of intraluminal administration in the colon): 1.689 ± 0.15
Sample 2 × 6 mm [4, 5]: 373.12 ± 48.12 mg
Score (0-10) [4, 5]: 5.2 ± 0.73
Weight/mm [4, 5]: 0.187 ± 0.02
% (inhibition, Sample 2 × 6 mm) [4, 6]: 17.9%
% (inhibition, Weight/mm) [4, 6]: 13.3%
% (inhibition, Wet Weight) [4, 6]: 13.4%
Wet Weight (colon) ([4]; 2.5 mg/Kg p.o., after 7 days of intraluminal administration in the colon): 1.354 ± 0.14
% (inhibition, Score) ([4]; 2.5 mg/Kg p.o., after 7 days of intraluminal administration, 2.5 mg/kg): 78,6%
Sample 2 × 6 mm [4, 6]: 299.62 ± 75.58 mg
Score (0-10) [4, 6]: 1.2 ± 0.58
Weight/mm [4, 6]: 0.150 ± 0.00
% (inhibition, Sample 2 × 6 mm) [4, 7]: 61.7%
% (inhibition, Score) [4, 7]: 42.9%
% (inhibition, Weight/mm) [4, 7]: 77.3%
% (inhibition, Wet Weight) [4, 7]: 77.4%
Wet Weight (colon) ([4]; 5.0 mg/Kg p.o., after 24 hours of intraluminal administration in the colon): 1.412 ± 0.06
Sample 2 × 6 mm [4, 7]: 301.10 ± 18.95 mg
Score (0-10) [4, 7]: 4.0 ± 0.32
Weight/mm [4, 7]: 0.157 ± 0.00
% (inhibition, Sample 2 × 6 mm) [4, 8]: 71.4%
% (inhibition, Weight/mm) [4, 8]: 63.0%
% (inhibition, Wet Weight) [4, 8]: 63.0%
Wet Weight (colon) ([4]; 5.0 mg/Kg p.o., after 7 days of intraluminal administration in the colon): 1.113 ± 0.14
% (inhibition, Score) ([4]; 5.0 mg/Kg p.o., after 7 days of intraluminal administration, 5 mg/kg): 71,4%
Sample 2 × 6 mm [4, 8]: 272.14 ± 53.65 mg
Score (0-10) [4, 8]: 1.4 ± 0.40
Weight/mm [4, 8]: 0.124 ± 0.01

Source: patent US6583127B1, “Use of etherlysophospholipids as antiinflammatory agents” (Inkeysa. SA, priority 1998, dated 2003)
